Laboratory results taken from US20100120690A1, “Polypeptides Having Antimicrobial Activity and Polynucleotides Encoding Same” (Novozymes Adenium Biotech A/S, priority 2005, published 2010).

The sequences below were run on Staphylococcus carnosus ATCC51365 (assay: Yeast screening assay: radial diffusion assay of yeast supernatants). Details: yeast supernatant, clearing zone in radial diffusion assay.
Assay type: cell-based
Set-up: key: An activity of 3 is better than Plectasin; An activity of 2 corresponds to the activity of Plectasin; 1 is worse than Plectasin
Method: A range of antimicrobial polypeptides, which are variants of SEQ ID NO: 1 (Plectasin), were tested for antimicrobial activity by expressing them in S. cerevisae and screening the supernatant of the yeast transformants for antimicrobial activity against Staphylococcus carnosus ATCC51365.
Radial Diffusion Assay was carried out as described in Methods in Molecular Biology, Vol. 78, Antibacterial peptide protocol, William M. Shafer, Human Press.
200-300 yeast transformant colonies were plated on 14 cm round plates containing 25 mL SC growth medium supplemented with 1.5% galactose, 0.5% glucose and 1.5% agarose. Plates were incubated for three hours at room temperature, overlaid with 25 mL of the same growth medium and allowed to grow for three days at 30° C. Then the plates were overlaid with 25 mL of LB growth medium containing 1.5% agarose and 10^5 cells of the indicator strain Staphylococcus carnosus and incubated at 30° C. overnight to allow growth of the bacterial cells. Next day, the plates were stained with 1.5 mM MTT to facilitate visualization of the clearing zones.
Yeast colonies creating clearing zones were transferred to microtiter plates containing 200 micro-L of SC growth medium supplemented with 2% glucose and ampicillin (100 mg/L). Such plates designated “master plates” were incubated for 2 days at 30° C. with shaking at 450 rpm to allow yeast growth.
10 micro-L SC growth medium from each well of the master plates were transferred to new microtiter plates containing 200 micro-L SC growth medium with 1.5% galactose and 0.5% glucose. These plates were called daughter plates and were incubated for 3 days at 30° C. under 450 rpm shaking to allow yeast growth and peptide synthesis.
Finally a Radial Diffusion Assay (RDA) was performed following the protocol described in Methods in Molecular Biology to analyse and quantify the antimicrobial activity of the yeast supernatants against S. carnosus.
Briefly, 30 mL of minimal underlay medium containing 1% agarose and 5×10^5 cfu/mL of S. carnosus was poured in an omnitray plate (Nunc, 242811). A Nunc TSP plate (#445497) was inserted immediately on the plate to allow a 96 well pattern formation. Once the media had solidified, the TSP plate was removed and 10 micro-L of yeast supernatant samples were applied on the holes. Plates were incubated 3 hours at 37° C. and overlaid with 15 mL of LB agar growth medium. Finally, plates were incubated overnight at 37° C. and coloured with 1.5 mM MTT to visualize the clearing zones.
Inspection and measurements of the clearing zones was performed on the plates. The corresponding yeast clones resulting in clearing zones of similar or increased size than the clones encoding for wild type plectasin were picked from the master plates and transferred to agar plates containing SC growth medium with 2% glucose and ampicillin (100 mg/L). Such plates were incubated for further 2 days at 30° C. to allow yeast growth. Subsequently, colony PCR was performed followed by sequence analysis to identify amino acid changes in the plectasin sequence.
An activity of 2 corresponds to the activity of Plectasin. An activity of 3 is better than Plectasin, and 1 is worse than Plectasin.

Sequence | Activity (antimicrobial activity relative to the activity of plectasin)
GFGCNGPWDEDDMQCHNHCKSIKGLKGGYCAKGGFVCKCY [Mutation Y25L] | 2
GFGCNGPWDEIDMQCHNHCKSIKGYKGGYCAKGGFVCKCY [Mutation D11I] | 3
GFGCNGPWDGDDMRCHNHCKSIKGYKGGYCAKGGFVCKCY [E10G + Q14R] | 3
GWGCNGPWDEDDMQCHNHCKSIKGYKGGYCAKGGFVCKCY [Mutation F2W] | 2
GFGCKGPWDEGDMQCHNHCKSIKGYKGGYCAKGGFVCKCY [N5K + D11G] | 3
GFGCNGPWDEDDMQCHNHCKSIKGYKGGYCAKGHFVCKCY [Mutation G34H] | 2
GFGCNGPWDEDDMQCHNHCKSIKGYKGGYCTKGGFVCKCY [Mutation A31T] | 3
GFGCNGPWDEDDMMCHNHCKSIKGYKGGYCAKGGFVCKCY [Mutation Q14M] | 2
GFGCNGPWAEDDMQCHNHCKSIKGYKGGYCAKGGFVCKCY [Mutation D9A] | 3
GFGCNGPWDEDDMQCHNHCKSIKGYKGGYCAKEGFVCKCY [Mutation G33E] | 2
GFGCNGPWDEDDMQCHNHCKSIKGYKGGYCAKGWFVCKCY [Mutation G34W] | 2
GFGCNGPWDEDDMSCHNHCKSIKGYKGGYCAKGGFVCRCY [Q14S + K38R] | 2
GFGCNGPWDEDDMQCHNHCKSIKGYKGGYCHKGGFVCKCY [Mutation A31H] | 2
GFGCLGPWDEDDMQCHNHCKSIKGYKGGYCAKGGFVCKCY [Mutation N5L] | 2
GFGCNGPWDEDDMQCHNHCKSIKGYKGGYCAKGGFRCKCY [Mutation V36R] | 2
GFGCNGPWDEMDMQCHNHCKSIKGYKGGYCAKGGFVCKCY [Mutation D11M] | 3
GFGCNKPWDEDDMQCHNHCKSIKGYKGGYCAKGGFVCKCY [Mutation G6K] | 2
GFGCNGPWDENDMQCHNHCKSIKGYKGGYCAKGGFICKCY [D11N + V36I] | 3
GFGCNGPWDEKDMQCHNHCKSIKGYKGGYCAKGGFVCKCY [Mutation D11K] | 3
GFGCNGPWDEDDMQCHNHCKSIKGYKGGYCAKGKFVCKCY [Mutation G34K] | 3

Sequence | Activity (antimicrobial activity relative to the activity of plectasin)
GFGCNGPWDEDDMQCHNHCKSIKTYKGGYCAKGGFVCKCY [Mutation G24T] | 2
GFGCNGPWDEDDMQCHNHCKSIKPYKGGYCAKGGFVCKCY [Mutation G24P] | 2
GFGCNGPWDEDDMCCHNHCKSIKGYKGGYCAKGGFVCKCY [Mutation Q14C] | 2
GFGCNGPWDEGDMQCHSHCKSIKGYKGGYCAKGGFVCKCY [D11G + N17S] | 3
GFGCNGPWDEDDMQCHNHCKSIKGVKGGYCAKGGFVCKCY [Mutation Y25V] | 2
GFGCNAPWDEDDMQCHNHCKSIKGYKGGYCAKGGFVCKCY [Mutation G6A] | 2
GFGCNGPWDEDDMQCHNHCKSIKGNKGGYCAKGGFVCKCY [Mutation Y25N] | 2
GFGCNGPWDEDDMQCHNHCKSIKGMKGGYCAKGGFVCKCY [Mutation Y25M] | 2
GFGCNGPWDEDDMQCHNHCKSIKGYKGGYCAKGGFVCRCY [Mutation K38R] | 2
GFGCNRPWDEDDMQCHNHCKSIKGYKGGYCAKGGFVCKCY [Mutation G6R] | 2
GFGCNGPWDEDDMQCHNHCKSIKGKKGGYCAKGGFVCKCY [Mutation Y25K] | 2
GFGCNGPWDEVDMQCHNHCKSIKGYKGGYCAKGGFVCKCY [Mutation D11V] | 3
GFGCNGPWDEDDMPCHNHCKSIKGYKGGYCAKGGFVCKCY [Mutation Q14P] | 2
GFGCNGPWDEDDMQCHNHCKSIKGYKGGFCAKGGFVCKCY [Mutation Y29F] | 3
GFGCNGPWDEDDRQCHNHCKSIKGYKGGFCAKGGFVCKCY [M13R + Y29F] | 2
GFGCNGPWDEDDMQCHNHCKSIKGYHGGYCAKGGFVCKCY [Mutation K26H] | 2
GFGCNGPWDEFDMQCHNHCKSIKGYKGGYCAKGGFVCKCY [Mutation D11F] | 3
GFGCNGPWDEADMQCHNHCKSIKGYKGGYCAKGGFVCKCY [Mutation D11A] | 2
GIGCNGPWDEDDMQCHNHCKSIKGYKGGYCAKGGFVCKCY [Mutation F2I] | 2
GFGCNGPWDEDDMWCHNHCKSIKGYKGGYCAKGGFVCKCY [Mutation Q14W] | 2

Sequence | Activity (antimicrobial activity relative to the activity of plectasin)
GFGCNGPWDEWDMQCHNHCKSIKGYKGGYCAKGGFVCKCY [Mutation D11W] | 3
GFGCNGPWDEDDMQCHNHCKSLKGYKGGYCAKGGFVCKCY [Mutation I22L] | 3
GFGCNGPWDEDDYQCHNHCKSIKGYKGGYCAKGGFVCKCY [Mutation M13Y] | 2
GFGCNGPWDEDDMQCHNHCKSIKGYKGGYCAKGGFICKCY [Mutation V36I] | 2
GFGCNGPWDEDDMQCHNHCKSIKGYKGGYCAKGGFMCKCY [Mutation V36M] | 3
GFGCNGPWYEDDMQCHNHCKSIKGYKGGYCAKGGFVCKCY [Mutation D9Y] | 3
GFGCNGPWDESDMQCHNHCKSIKGYKGGYCAKGGFVCKCY [Mutation D11S] | 3
GFGCNGPWDEDDMYCHNHCKSIKGYKGGYCAKGGFVCKCY [Mutation Q14Y] | 3
GFGCNGPWDEDDVQCHNHCKSIKGYKGGYCAKGGFVCKCY [Mutation M13V] | 3
GFGCNGPWDEDDMQCHNHCKSMKGYKGGYCAKGGFVCKCY [Mutation I22M] | 2
GFGCNGPWDEDDMQCHNHCKSIKGYKGGHCAKGGFVCKCY [Mutation Y29H] | 2
GFGCNGPWDEGDMQCHNHCKSIKGYKGGYCAKGGFVCKCY [Mutation D11G] | 3
GFGCNGPWDEHDMQCHNHCKSIKGYKGGYCAKGGFVCKCY [Mutation D11H] | 3
GFGCNGPWDETDMQCHNHCKSIKGYKGGYCAKGGFVCKCY [Mutation D11T] | 3
GFGCNGPWDEDDMQCHNHCKSIKGYTGGYCAKGGFVCKCY [Mutation K26T] | 2
GFGCNGPWDEDDMQCHNHCKSIKGYKGGYCAKRGFVCKCY [Mutation G33R] | 3
GFGCNGPWDEDDLQCHNHCKSIKGYKGGYCAKGGFVCKCY [Mutation M13L] | 2
GFGCNGPWDGDDMQCHNHCKSIKGYKGGYCAKGGFVCKCY [Mutation E10G] | 3
GFGCNGPWDEDDMACHNHCKSIKGYKGGYCAKGGFVCKCY [Mutation Q14A] | 2
GFGCNGPWTEDDMQCHNHCKSIKGYKGGYCAKGGFVCKCY [Mutation D9T] | 3
